1 substance from US20160367623A1, “AGONISTS OF GUANYLATE CYCLASE USEFUL FOR THE TREATMENT OF GASTROINTESTINAL DISORDERS, INFLAMMATION, CANCER AND OTHER DISORDERS” (priority 2015, published 2016) can be followed below.

Bridge positions count the residues as written; N and C are the ends. Ends that are not written are not given here.

The test system of data set [1] is patients with chronic idiopathic constipation (CIC). Kind of data set: First phase 3 CIC trial: durable overall CSBM responders (primary endpoint). It is filed as in vivo, human. More on the design: Odds Ratio (adjusted), durable overall CSBM responders: reference not given here. To be noted: for Non-Responders, % / Durable Overall CSBM Responders, %: ITT; for Durable Overall CSBM Responders, %: MRA; for proportion of durable overall responders: 12-week treatment, intention-to-treat population, placebo 10.2%; for Odds Ratio (adjusted), durable overall CSBM responders / Difference in Proportions (adjusted), responders minus placebo: adjusted for gender; for Odds Ratio (adjusted), durable overall CSBM responders: CMH. The source says:
Both trials include a two-week pre-treatment baseline period, a 12-week treatment period, and a two-week post-treatment period. The phase 3 CIC program was designed to support regulatory submission in the U. S.
The primary endpoint for both trials is the proportion of durable overall responders (%), which is the current regulatory endpoint required for U.S. approval in CIC. The FDA has defined a durable overall responder as a patient who fulfills both ≧3 complete spontaneous bowel movements (CSBMs) per week plus an increase of ≧1 CSBM from baseline in the same week, for 9 out of the 12 treatment weeks. In addition, the same patient must be an overall responder for at least 3 of the last 4 treatment weeks in order to be considered a durable overall responder.
Patients were selected using Rome 3 criteria modified for CIC and had (1) fewer than 3 defecations per week, (2) loose stools occurring rarely without laxatives, (3) inadequate criteria for irritable bowel syndrome with constipation (IBS-C), and (4) at least two of the following applied to at least 25% of defecations: (a) straining during evacuation, (b) lumpy or hard stools, (c) sensation of anorectal obstruction or blockage. Rome 3 requires patients to fulfill the criteria for the last 3 months with symptom onset at least 6 months prior to diagnosis.

Data set [2] shares this test system. Kind of data set: First phase 3 CIC trial: treatment emergent adverse events, safety.

With “Asn^1-Asp^2-Glu^3-Cys^4-Glu^5-Leu^6-Cys^7-Val^8-Asn^9-Val^10-Ala^11-Cys^12-Thr^13-Gly^14-Cys^15-Leu^16 (NDECELCVNVACTGCL; disulfide 4-12, 7-15) [Plecanatide]”, the “Non-Responders, %” value in data set [1] (3 mg (N = 453)) stood at 79.0%; in data set [1] (6 mg (N = 441)), 80.5%; in data set [1] (Active Combined (N = 894)), 79.8%. Further, the “Durable Overall CSBM Responders, %” value in data set [1] (3 mg (N = 453)) was 21.0%; in data set [1] (6 mg (N = 441)) it was 19.5%; in data set [1] (Active Combined (N = 894)), 20.2%. For the same substance, the “proportion of durable overall responders” value in data set [1] (3.0 mg once-a-day) came to 21.0%; in data set [1] (6.0 mg once-a-day), 19.5%. Besides, the “Odds Ratio (adjusted), durable overall CSBM responders” value is listed as 0.429 in data set [1] (3 mg vs placebo) and 0.469 in data set [1] (6 mg vs placebo). Also, the “Difference in Proportions (adjusted), responders minus placebo” value worked out at 0.107 in data set [1] (3 mg) and 0.094 in data set [1] (6 mg). Also, the “Serious TEAE Infections and infestations, Reasonable Possibility: E events” value in data set [2] (3 mg (N = 474)) and in data set [2] (6 mg (N = 457)) was 0 each time. In addition, the “Serious TEAE Infections and infestations, Reasonable Possibility: N patients” value in data set [2] (3 mg (N = 474)) and in data set [2] (6 mg (N = 457)) was 0 in each case. Also, the figures for the “Serious TEAE Infections and infestations: E events” value in data set [2] (3 mg (N = 474)) and in data set [2] (6 mg (N = 457)) were 0 and 2, respectively. For the same substance, the results for the “Serious TEAE Infections and infestations: N patients” value in data set [2] (3 mg (N = 474)) and in data set [2] (6 mg (N = 457)) were 0 and 2, respectively. For the same substance, in data set [2] (6 mg (N = 457)), the “Serious TEAE Infections and infestations: % patients” value is “(0.4) %”.
